Patent US20260226034A1 (The Rockefeller University, priority 2023, published 2026)

Target: NSP14 (Severe acute respiratory syndrome coronavirus 2, UniProt P0DTD1)
Assay: NSP14 MTase inhibition assay at 37° C. (MTase-Glo SAH detection)
Format: biochemical, SARS-CoV-2
Conditions: 0.3 nM NSP14, 2.5 μM SAM, 2.5 μM GpppA RNA, 45 min at 37° C.; read-out: Nsp14 Mtase Inh. IC50

SMILES | IC50 [nM]
COCC1(NC(=O)c2cc(S(=O)(=O)c3ccc4[nH]ncc4c3)c(C)n2C)CCN(c2ncc(F)cn2)C1 (single isomer, unassigned) [A.114, 4-((1H-indazol-5-yl)sulfonyl)-N-(1-(5-fluoropyrimidin-2-yl)-3-(methoxymethyl)pyrrolidin-3-yl)-1,5-dimethyl-1H-pyrrole-2-carboxamide] | 0.87
Cc1c(S(=O)(=O)c2cc(Cl)c3[nH]ncc3c2)cc(C(=O)N[C@@H]2CCN(c3ccc(C#N)cn3)C2)n1C [A.106] | < 0.15
Cc1c(S(=O)(=O)c2ccc(Cl)cc2)cc(C(=O)NCc2cccc3cnn(C)c23)n1C [A.11] | 5.3
Cc1c(S(=O)(=O)c2ccc3[nH]ncc3c2)cc(C(=O)N[C@@H]2CCN(c3ccc(F)nn3)C2)n1C [A.53] | 0.36
Cc1c(S(=O)(=O)c2ccc3[nH]ncc3c2)cc(C(=O)N[C@@H]2CCN(c3cccc4c3cnn4C)C2)n1C [A.61] | 0.39
Cc1c(S(=O)(=O)c2ccc3[nH]ncc3c2)cc(C(=O)N[C@@H]2CCN(c3cc(C(F)(F)F)ccn3)C2)n1C [A.74] | 0.57
COCC1(NC(=O)c2cc(S(=O)(=O)c3ccc4[nH]ncc4c3)c(C)n2C)CCN(c2ncc(F)cn2)C1 (single isomer, unassigned) [A.115, 4-((1H-indazol-5-yl)sulfonyl)-N-(1-(5-fluoropyrimidin-2-yl)-3-(methoxymethyl)pyrrolidin-3-yl)-1,5-dimethyl-1H-pyrrole-2-carboxamide] | 37
Cc1c(S(=O)(=O)c2ccc3[nH]ncc3c2)cc(C(=O)NCc2c(F)ccc3occc23)n1C [A.2] | 0.32
Cc1c(S(=O)(=O)c2ccc3[nH]ncc3c2)cc(C(=O)N[C@@H]2CCN(c3ncccc3C#N)C2)n1C [A.37] | < 0.15
Cc1c(S(=O)(=O)c2ccc3[nH]ncc3c2)cc(C(=O)NCc2cccn3nccc23)n1C [A.13] | 7.2
Cc1c(S(=O)(=O)c2ccc3[nH]ncc3c2)cc(C(=O)N[C@@H]2CCN(c3nccnc3C#N)C2)n1C [A.120] | 0.26
Cc1c(S(=O)(=O)c2ccc3[nH]ncc3c2)cc(C(=O)N[C@@H]2CCN(c3cc(C#N)ccn3)C2)n1C [A.79] | 0.6
Cc1c(S(=O)(=O)c2ccc3[nH]ncc3c2)cc(C(=O)N[C@@H]2CCN(c3ccc(F)cc3C#N)C2)n1C [A.82] | 0.45
Cc1c(S(=O)(=O)c2ccc3[nH]ncc3c2)cc(C(=O)N[C@H]2C[C@@H](Nc3ncc(F)cn3)C2)n1C [A.97] | 13
Cc1c(S(=O)(=O)c2ccc3[nH]ncc3c2)cc(C(=O)N[C@@H]2CCN(c3ccc(F)cn3)C2)n1C [A.51] | < 0.15
Cc1c(S(=O)(=O)c2ccc3[nH]ncc3c2)cc(C(=O)N[C@H]2CN(c3ncc(F)cn3)C[C@H]2F)n1C [A.48] | 33
Cc1c(S(=O)(=O)c2ccc3[nH]ncc3c2)cc(C(=O)N[C@@H]2CCN(c3ncccn3)C2)n1C [A.64] | 0.78
Cc1c(S(=O)(=O)c2ccc3[nH]nc(F)c3c2)cc(C(=O)N[C@@H]2CCN(c3ncc(F)cn3)C2)n1C [A.39] | < 0.15
Cc1c(S(=O)(=O)c2ccccc2)cc(C(=O)NCc2cccnc2N2CCCC2)n1C [A.22] | 67
Cc1c(S(=O)(=O)c2ccc3[nH]ncc3c2)cc(C(=O)N[C@@H]2CCN(c3cc(C(F)(F)F)ncn3)C2)n1C [A.94] | 0.15
Cc1c(S(=O)(=O)c2ccc3[nH]ncc3c2)cc(C(=O)N[C@@H]2CCN(c3ccc(C(F)(F)F)cc3)C2)n1C [A.123] | 8.6
Cc1c(S(=O)(=O)c2ccc3[nH]ncc3c2)cc(C(=O)N[C@H]2CN(c3ncc(F)cn3)C[C@H]2O)n1C [A.89] | 14
Cc1c(S(=O)(=O)c2ccc3[nH]ncc3c2)cc(C(=O)N[C@@H]2CCN(c3cncnc3)C2)n1C [A.73] | 0.41
Cc1c(S(=O)(=O)c2ccc3[nH]ncc3c2)cc(C(=O)N[C@H]2C[C@@H](N(C)c3ncc(F)cn3)C2)n1C [A.98] | 0.39
Cc1c(S(=O)(=O)c2ccc3[nH]ncc3c2)cc(C(=O)N[C@@H]2CCN(c3cnccc3C#N)C2)n1C [A.95] | < 0.15
Cc1c(S(=O)(=O)c2cnc3c(cnn3C)c2)cc(C(=O)NCc2cccc3cnn(C)c23)n1C [A.29] | 160

Same assay, conditions: 37° C., 0.3 nM NSP14, 2.5 μM SAM, 2.5 μM GpppA RNA; read-out: Nsp14 Mtase Inh. IC50

SMILES | IC50 [nM]
Cc1c(S(=O)(=O)c2ccc3[nH]ncc3c2)cc(C(=O)NCc2cccc3c2ccc(=O)n3C)n1C [B.33] | 0.35
Cc1c(S(=O)(=O)c2cc(F)c3[nH]ncc3c2)cc(C(=O)NCc2c(F)ccc3cnn(C4CC4)c23)n1CCO [B.89] | 0.1
Cc1c(S(=O)(=O)c2cc(F)c3[nH]ncc3c2)cc(C(=O)NCc2c(F)ccc3nnn(C4CC4)c23)n1C [B.94] | < 0.15
Cc1c(S(=O)(=O)c2ccc3[nH]nc(F)c3c2)cc(C(=O)NCc2cccc3c(F)nn(C4CC4)c23)n1C [B.80] | 1.5
Cc1c(S(=O)(=O)c2cc(F)c3[nH]ncc3c2)cc(C(=O)NCc2c[nH]c(=O)c3ccccc23)n1C [B.109] | 0.24
Cc1c(S(=O)(=O)c2ccc3[nH]nc(F)c3c2)cc(C(=O)NC2CCc3c2ccc(=O)n3C)n1C (racemic) [B.178] | 21
Cc1c(S(=O)(=O)c2ccc3[nH]ncc3c2)cc(C(=O)NCc2c(F)ccc3c2N(C)C(=O)C3(C)C)n1C [B.119] | 0.21
Cc1c(S(=O)(=O)c2ccc3[nH]ncc3c2)cc(C(=O)NCc2ccnn2C2CC2)n1C [B.167] | 7.8
Cc1c(S(=O)(=O)c2ccc3[nH]ncc3c2)cc(C(=O)NCc2cccc3c2N(C)C(=O)CC3)n1C [B.15] | 14
Cc1c(S(=O)(=O)c2ccc3[nH]nc(F)c3c2)cc(C(=O)NCc2ccccc2N2CCC(F)(F)C2)n1C [B.39] | 5.2
Cc1c(S(=O)(=O)c2ccc3[nH]ncc3c2)cc(C(=O)NCc2c(Cl)ccn(C)c2=O)n1C [B.180] | < 0.15
Cc1c(S(=O)(=O)c2ccc3[nH]ncc3c2)cc(C(=O)NCc2cccc3c2CCC(=O)N3C)n1C [B.25] | < 0.15
Cc1c(S(=O)(=O)c2ccc3[nH]ncc3c2)cc(C(=O)NCc2cccc3c(F)n[nH]c23)n1C [B.31] | 5.4
Cc1c(S(=O)(=O)c2ccc3[nH]ncc3c2)cc(C(=O)NCc2c(Cl)cnn2C)n1C [B.142] | 1.4
Cc1c(S(=O)(=O)c2ccc3[nH]ncc3c2)cc(C(=O)NCc2c[nH]c3ncccc23)n1C [B.132] | 0.6
Cc1c(S(=O)(=O)c2cc(F)c3[nH]ncc3c2)cc(C(=O)NCc2c(F)ccc3cnn(C4CC4)c23)n1C [B.63] | < 0.15
Cc1c(S(=O)(=O)c2ccc3[nH]ncc3c2)cc(C(=O)NCc2c(Cl)cccc2Cl)n1C [B.84] | 0.18
Cc1c(S(=O)(=O)c2ccc3[nH]ncc3c2Cl)cc(C(=O)NCc2c(F)ccc3c2N(C)C(=O)C32CC2)n1C [B.143] | 0.4
Cc1c(S(=O)(=O)c2ccc3[nH]nc(F)c3c2)cc(C(=O)NCc2c(F)ccc3cnn(C4CC4)c23)n1C [B.46] | 0.53
Cc1c(S(=O)(=O)c2ccc3[nH]nc(F)c3c2)cc(C(=O)NCc2c(F)ccc3nnn(C4CC4)c23)n1C [B.82] | < 0.15
Cc1c(S(=O)(=O)c2ccc3[nH]ncc3c2)cc(C(=O)NCc2ccnn2C(F)F)n1C [B.165] | 14
Cc1c(S(=O)(=O)c2ccc3[nH]ncc3c2)cc(C(=O)NCc2cn(C)c(=O)cn2)n1C [B.156] | 6

SMILES | IC50 [nM]
Cc1c(S(=O)(=O)c2ccc3[nH]ncc3c2)cc(C(=O)NCc2ccc(=O)[nH]c2)n1C [B.104] | 27
Cc1c(S(=O)(=O)c2ccc3[nH]ncc3c2)cc(C(=O)NCc2c(F)cncc2F)n1C [B.107] | 0.12
Cc1c(S(=O)(=O)c2ccc3[nH]ncc3c2)cc(C(=O)NC2CCc3cc(C(F)(F)F)ccc32)n1C (racemic) [B.71] | 36
Cn1ncc(Cl)c1CNC(=O)c1cc(S(=O)(=O)c2ccc3[nH]ncc3c2)c2n1CCC2 [B.191] | 8.6
Cc1c(S(=O)(=O)c2ccc3[nH]ncc3c2)cc(C(=O)NC(=O)c2ccccc2)n1C [B.169] | 3.2
Cc1c(S(=O)(=O)c2ccc3[nH]ncc3c2)cc(C(=O)NCc2c(F)cccc2OCCS(C)(=O)=O)n1C [B.108] | < 0.15
Cc1c(S(=O)(=O)c2ccc3[nH]nc(F)c3c2)cc(C(=O)NC(c2ccccc2)c2ccccc2)n1C [B.126] | 108
Cc1c(S(=O)(=O)c2ccc3[nH]ncc3c2)cc(C(=O)NCc2cc(F)cc3cn(C)nc23)n1C [B.97] | 11
Cn1ncc(Cl)c1CNC(=O)c1cc(S(=O)(=O)c2cccc(C#N)c2)c2n1CCC2 [B.192] | 98
Cc1c(S(=O)(=O)c2ccc3[nH]ncc3c2)cc(C(=O)NCc2cccc(OCC(F)(F)F)c2)n1C [B.77] | 2.9
Cc1c(S(=O)(=O)c2cccc(C#N)c2)cc(C(=O)NCc2c(Cl)cnn2C)n1C [B.183] | 17
Cc1c(S(=O)(=O)c2ccc3[nH]ncc3c2)cc(C(=O)NCc2c(F)ccc(OCCCCC(=O)O)c2F)n1C [B.125] | < 0.15
Cc1c(S(=O)(=O)c2ccc3[nH]ncc3c2)cc(C(=O)NCc2c(F)ccc3c2N(C)C(=O)C32CC2)n1C [B.145] | < 0.15
Cc1c(S(=O)(=O)c2cc(Cl)c3[nH]ncc3c2)cc(C(=O)NCc2c(F)ccc3nnn(C4CC4)c23)n1C [B.153] | < 0.15
Cc1c(S(=O)(=O)c2ccc3c(cnn3C)c2)cc(C(=O)NCc2cccnc2N2CCC(C(=O)O)C2)n1C (stereo not shown) [B.47] | 1.7
Cc1c(S(=O)(=O)c2cccc(C#N)c2)cc(C(=O)NCc2c(F)ccc3cnn(C)c23)n1C [B.2] | 0.61
Cc1c(S(=O)(=O)c2ccc3[nH]ncc3c2)cc(C(=O)NCc2nccc3cnn(C)c23)n1C [B.24] | 0.62
Cc1c(S(=O)(=O)c2ccc3[nH]ncc3c2)cc(C(=O)NCc2cccc3c2N(C)C(=O)C3(F)F)n1C [B.26] | 0.49
O=C(NCc1c(F)ccc2ncn(C3CC3)c12)c1cc(S(=O)(=O)c2cc(F)c3[nH]ncc3c2)c2n1CCC2 [B.90] | 0.21
Cc1c(S(=O)(=O)c2ccc3[nH]ncc3c2)cc(C(=O)NCc2cccc3nnn(C)c23)n1C [B.34] | 0.2
Cc1c(S(=O)(=O)c2ccc3[nH]ncc3c2)cc(C(=O)NCc2ccc(F)c3cnn(C)c23)n1C [B.36] | 0.41
Cc1c(S(=O)(=O)c2ccc3[nH]ncc3c2)cc(C(=O)NC2CCc3ncccc32)n1C (stereo not shown) [B.55] | 5.6
